Here are results for 5 molecules from patent US12723063B2, “GIPR-agonist compounds” (Eli Lilly and Company, priority 2019, dated 2026).

*1 amine or outer side, *2 acyl side, *3 side chain or, on linkers, in order; H or OH if unused. Where a SMILES comes first, the peptide text is derived from it. Side-chain parts run from the residue outwards. [ ]: non-standard residue; d: D form. The star is where a group is joined. C20 diacid = O=C(O)CCCCCCCCCCCCCCCCCCC(=O)*; γGlu = O=C(O)[C@H](CCC(=O)[*:2])N[*:1]; 4Pal = N[C@@H](Cc1ccncc1)C(=O)O; αMeL = CC(C)C[C@](C)(N)C(=O)O; Iva = CC[C@](C)(N)C(=O)O; AEEA = NCCOCCOCC(=O)O; Aib = CC(C)(N)C(=O)O

One experiment addresses T1, human GcgR (Homo sapiens, UniProt P47871).
T1 construct: expressed in transfected cells; crude membranes
Description: [125I]-Glucagon binding, SPA with WGA beads, 0.1% bacitracin. The conditions noted are these: geometric mean, read-out: hGcgR Ki. A digest of the protocol: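 SPA competition binding with WGA beads on crude membranes from HEK293 cells stably expressing hGcgR. Buffer: 25 mM HEPES pH 7.4, 2.5 mM CaCl2, 1 mM MgCl2, 0.1% bacitracin, 0.003% Tween-20; 10-point 3-fold dilutions, NSB with 1 μM Gcg.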

For a further experiment, the target named is T2, human GIPR (Homo sapiens, UniProt P48546).
T2 construct: expressed in transfected cells; crude membranes
T2 sequence (P48546 22-466): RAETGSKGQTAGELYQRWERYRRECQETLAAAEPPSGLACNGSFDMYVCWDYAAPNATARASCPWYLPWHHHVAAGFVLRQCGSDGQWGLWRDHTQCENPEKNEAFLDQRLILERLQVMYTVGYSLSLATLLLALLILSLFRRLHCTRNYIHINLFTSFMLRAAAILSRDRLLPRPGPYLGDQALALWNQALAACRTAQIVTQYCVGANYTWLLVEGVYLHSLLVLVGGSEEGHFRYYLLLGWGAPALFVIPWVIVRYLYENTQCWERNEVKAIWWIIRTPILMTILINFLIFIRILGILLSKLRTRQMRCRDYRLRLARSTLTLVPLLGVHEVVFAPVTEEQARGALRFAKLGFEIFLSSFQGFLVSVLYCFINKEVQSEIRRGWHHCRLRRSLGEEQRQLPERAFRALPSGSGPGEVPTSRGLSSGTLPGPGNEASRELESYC
The experiment can be described thus: [125I]-GIP binding, SPA with WGA beads, 0.1% bacitracin. Particulars: geometric mean, read-out: hGIPR Ki. Summed up:
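Ki values are geometric means (SEM, n independent days), derived from four-parameter nonlinear regression of IC50. Membranes came from hGIPR-expressing CHO cells.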

T1 sequence (P47871 26-477): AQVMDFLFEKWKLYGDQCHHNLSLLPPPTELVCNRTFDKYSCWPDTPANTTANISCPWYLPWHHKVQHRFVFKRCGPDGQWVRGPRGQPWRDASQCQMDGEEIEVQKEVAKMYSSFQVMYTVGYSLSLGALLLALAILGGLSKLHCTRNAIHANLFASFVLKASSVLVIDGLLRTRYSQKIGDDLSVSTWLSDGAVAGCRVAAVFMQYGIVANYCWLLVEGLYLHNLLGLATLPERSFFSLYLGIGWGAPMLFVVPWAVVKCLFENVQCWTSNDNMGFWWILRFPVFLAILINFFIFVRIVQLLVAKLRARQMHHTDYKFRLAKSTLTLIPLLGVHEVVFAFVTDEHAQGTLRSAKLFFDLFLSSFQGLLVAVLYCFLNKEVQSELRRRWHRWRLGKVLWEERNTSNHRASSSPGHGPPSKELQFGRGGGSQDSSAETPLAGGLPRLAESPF

As usually defined, the Ki is a measure of affinity in units of concentration, obtained from inhibition or displacement. `CC[C@H](C)[C@H](NC(=O)[C@H](Cc1ccccc1)NC(=O)[C@@H](NC(=O)CNC(=O)[C@H](CCC(=O)O)NC(=O)C(C)(C)NC(=O)[C@@H](N)Cc1ccc(O)cc1)[C@@H](C)O)C(=O)N[C@@H](CO)C(=O)N[C@@H](CC(=O)O)C(=O)N[C@@H](Cc1ccc(O)cc1)C(=O)N[C@@H](CO)C(=O)N[C@H](C(=O)N[C@@](C)(CC(C)C)C(=O)N[C@@H](CC(C)C)C(=O)N[C@@H](CC(=O)O)C(=O)N[C@@H](CCCCN)C(=O)N[C@@H](CCCCNC(=O)COCCOCCNC(=O)COCCOCCNC(=O)CC[C@H](NC(=O)CCCCCCCCCCCCCCCCCCC(=O)O)C(=O)O)C(=O)N[C@@H](Cc1c[nH]cn1)C(=O)N[C@@H](CCC(N)=O)C(=O)NC(C)(C)C(=O)N[C@@H](CCC(=O)O)C(=O)N[C@@H](Cc1ccccc1)C(=O)N[C@H](C(=O)N[C@@H](CCC(=O)O)C(=O)N[C@@H](Cc1ccncc1)C(=O)N[C@@H](CC(C)C)C(=O)N[C@@H](CC(C)C)C(=O)N[C@@H](C)C(=O)NCC(=O)NCC(=O)N1CCC[C@H]1C(=O)N[C@@H](CO)C(=O)N[C@@H](CO)C(=O)NCC(=O)N[C@@H](C)C(=O)N1CCC[C@H]1C(=O)N1CCC[C@H]1C(=O)N1CCC[C@H]1C(=O)N[C@@H](CO)C(N)=O)C(C)C)[C@@H](C)CC` [Example 52]: the Ki at human GcgR turned out to be 114 nM; at human GIPR, 0.0372 nM.

For `CC[C@H](C)[C@H](NC(=O)[C@H](Cc1ccccc1)NC(=O)[C@@H](NC(=O)CNC(=O)[C@H](CCC(=O)O)NC(=O)C(C)(C)NC(=O)[C@@H](N)Cc1ccc(O)cc1)[C@@H](C)O)C(=O)N[C@@H](CO)C(=O)N[C@@H](CC(=O)O)C(=O)N[C@@H](Cc1ccc(O)cc1)C(=O)N[C@@H](CO)C(=O)N[C@H](C(=O)N[C@@](C)(CC(C)C)C(=O)N[C@@H](CC(C)C)C(=O)N[C@@H](CC(=O)O)C(=O)N[C@@H](CCCCN)C(=O)N[C@@H](CCCCNC(=O)COCCOCCNC(=O)COCCOCCNC(=O)CC[C@H](NC(=O)CCCCCCCCCCCCCCCCCCC(=O)O)C(=O)O)C(=O)N[C@@H](Cc1c[nH]cn1)C(=O)N[C@@H](CCC(N)=O)C(=O)NC(C)(C)C(=O)N[C@@H](CC(=O)O)C(=O)N[C@@H](Cc1ccccc1)C(=O)N[C@H](C(=O)N[C@@H](CCC(=O)O)C(=O)N[C@@H](Cc1ccc(O)cc1)C(=O)N[C@@H](CC(C)C)C(=O)N[C@@H](CC(C)C)C(=O)N[C@@H](C)C(=O)NCC(=O)NCC(=O)N1CCC[C@H]1C(=O)N[C@@H](CO)C(=O)N[C@@H](CO)C(=O)NCC(=O)N[C@@H](C)C(=O)N1CCC[C@H]1C(=O)N1CCC[C@H]1C(=O)N1CCC[C@H]1C(=O)N[C@@H](CO)C(N)=O)C(C)C)[C@@H](C)CC` [Example 53] (H-Y[Aib]EGTFISDYSI[αMeL]LDKK([AEEA-AEEA-γGlu-C20 diacid])HQ[Aib]DFVEYLLAGGPSSGAPPPS-NH2), the Ki was 152 nM on human GcgR and 0.0184 nM on human GIPR.

For the molecule `CC[C@H](C)[C@H](NC(=O)[C@H](Cc1ccccc1)NC(=O)[C@@H](NC(=O)CNC(=O)[C@H](CCC(=O)O)NC(=O)C(C)(C)NC(=O)[C@@H](N)Cc1ccc(O)cc1)[C@@H](C)O)C(=O)N[C@@H](CO)C(=O)N[C@@H](CC(=O)O)C(=O)N[C@@H](Cc1ccc(O)cc1)C(=O)N[C@@H](CO)C(=O)N[C@H](C(=O)N[C@@](C)(CC(C)C)C(=O)N[C@@H](CC(C)C)C(=O)N[C@@H](CC(=O)O)C(=O)N[C@@H](CCCCN)C(=O)N[C@@H](CCCCNC(=O)COCCOCCNC(=O)COCCOCCNC(=O)CC[C@H](NC(=O)CCCCCCCCCCCCCCCCCCC(=O)O)C(=O)O)C(=O)N[C@@H](Cc1c[nH]cn1)C(=O)N[C@@H](CCC(N)=O)C(=O)NC(C)(C)C(=O)N[C@@H](CC(=O)O)C(=O)N[C@@H](Cc1ccccc1)C(=O)N[C@H](C(=O)N[C@@H](CCC(=O)O)C(=O)N[C@@H](Cc1c[nH]c2ccccc12)C(=O)N[C@@H](CC(C)C)C(=O)N[C@@H](CC(C)C)C(=O)N[C@@H](C)C(=O)NCC(=O)NCC(=O)N1CCC[C@H]1C(=O)N[C@@H](CO)C(=O)N[C@@H](CO)C(=O)NCC(=O)N[C@@H](C)C(=O)N1CCC[C@H]1C(=O)N1CCC[C@H]1C(=O)N1CCC[C@H]1C(=O)N[C@@H](CO)C(N)=O)C(C)C)[C@@H](C)CC` [Example 54] (H-Y[Aib]EGTFISDYSI[αMeL]LDKK([AEEA-AEEA-γGlu-C20 diacid])HQ[Aib]DFVEWLLAGGPSSGAPPPS-NH2), the Ki at human GcgR turned out to be 386 nM; on human GIPR it was 0.0326 nM.

For `CC[C@H](C)[C@H](NC(=O)[C@H](CO)NC(=O)[C@H](Cc1ccc(O)cc1)NC(=O)[C@H](CC(=O)O)NC(=O)[C@H](CO)NC(=O)[C@@H](NC(=O)[C@](C)(CC)NC(=O)[C@@H](NC(=O)CNC(=O)[C@H](CCC(=O)O)NC(=O)C(C)(C)NC(=O)[C@@H](N)Cc1ccc(O)cc1)[C@@H](C)O)[C@@H](C)CC)C(=O)N[C@@](C)(CC(C)C)C(=O)N[C@@H](CC(C)C)C(=O)N[C@@H](CC(=O)O)C(=O)N[C@@H](CCCCN)C(=O)N[C@@H](CCCCNC(=O)COCCOCCNC(=O)COCCOCCNC(=O)CC[C@H](NC(=O)CCCCCCCCCCCCCCCCCCC(=O)O)C(=O)O)C(=O)N[C@@H](Cc1c[nH]cn1)C(=O)N[C@@H](CCC(N)=O)C(=O)NC(C)(C)C(=O)N[C@@H](CC(=O)O)C(=O)N[C@@H](Cc1ccccc1)C(=O)N[C@H](C(=O)N[C@@H](CCC(=O)O)C(=O)N[C@@H](Cc1ccncc1)C(=O)N[C@@H](CC(C)C)C(=O)N[C@@H](CC(C)C)C(=O)N[C@@H](C)C(=O)NCC(=O)NCC(=O)N1CCC[C@H]1C(=O)N[C@@H](CO)C(=O)N[C@@H](CO)C(=O)NCC(=O)N[C@@H](C)C(=O)N1CCC[C@H]1C(=O)N1CCC[C@H]1C(=O)N1CCC[C@H]1C(=O)N[C@@H](CO)C(N)=O)C(C)C` [Example 55] (H-Y[Aib]EGT[Iva]ISDYSI[αMeL]LDKK([AEEA-AEEA-γGlu-C20 diacid])HQ[Aib]DFVE[4Pal]LLAGGPSSGAPPPS-NH2), the Ki at human GcgR is more than 960 nM; at human GIPR, 0.0331 nM.

With `CC[C@H](C)[C@H](NC(=O)[C@H](Cc1ccccc1)NC(=O)[C@@H](NC(=O)CNC(=O)[C@H](CCC(=O)O)NC(=O)C(C)(C)NC(=O)[C@@H](N)Cc1ccc(O)cc1)[C@@H](C)O)C(=O)N[C@@H](CO)C(=O)N[C@@H](CC(=O)O)C(=O)N[C@@H](Cc1ccc(O)cc1)C(=O)N[C@@H](CO)C(=O)N[C@H](C(=O)N[C@@](C)(CC(C)C)C(=O)N[C@@H](CC(C)C)C(=O)N[C@@H](CC(=O)O)C(=O)N[C@@H](CCCCN)C(=O)N[C@@H](CCCCNC(=O)COCCOCCNC(=O)COCCOCCNC(=O)CC[C@H](NC(=O)CCCCCCCCCCCCCCCCCCC(=O)O)C(=O)O)C(=O)N[C@@H](Cc1c[nH]cn1)C(=O)N[C@@H](CCC(N)=O)C(=O)NC(C)(C)C(=O)N[C@@H](CC(=O)O)C(=O)N[C@@](C)(Cc1ccccc1)C(=O)N[C@H](C(=O)N[C@@H](CCC(=O)O)C(=O)N[C@@H](Cc1ccncc1)C(=O)N[C@@H](CC(C)C)C(=O)N[C@@H](CC(C)C)C(=O)N[C@@H](C)C(=O)NCC(=O)NCC(=O)N1CCC[C@H]1C(=O)N[C@@H](CO)C(=O)N[C@@H](CO)C(=O)NCC(=O)N[C@@H](C)C(=O)N1CCC[C@H]1C(=O)N1CCC[C@H]1C(=O)N1CCC[C@H]1C(=O)N[C@@H](CO)C(N)=O)C(C)C)[C@@H](C)CC` [Example 56], the Ki amounted to 193 nM on human GcgR and 0.0487 nM on human GIPR.
